# US10597388B2, “Pyridazinone herbicides” (FMC CORPORATION, priority 2014, dated 2020)
# Legend:
# Experiment in all cases: Test D controlled growth environment herbicide test, pre- and postemergence
# Assay type in all cases: in vivo
# [1] = system: chickweed (common chickweed, Stellaria media)
# Summary of the method: (§1)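 Rating is visual, 0–100 scale (100 = complete control), made against untreated plants 14–21 d after treatment in controlled growth conditions. Postemergence sprays went onto 1- to 4-leaf plants in peat medium; preemergence sprays onto silt loam after sowing; formulation included a surfactant.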
# [2] = system: radish, wild (wild radish, Raphanus raphanistrum)
# Summary of the method: as §1
# [3] = system: field poppy (Papaver rhoeas)
# Summary of the method: as §1
# [4] = system: barley, spring (spring barley, Hordeum vulgare)
# Summary of the method: as §1
# [5] = system: wheat, spring (spring wheat, Triticum aestivum)
# Summary of the method: as §1
# [6] = system: canarygrass (Phalaris minor)
# Summary of the method: as §1
# [7] = system: Russian thistle (Salsola kali)
# Summary of the method: as §1
# [8] = system: lambsquarters (Chenopodium album)
# Summary of the method: as §1
# [9] = system: field violet (Viola arvensis)
# Summary of the method: as §1
# [10] = system: bluegrass (annual bluegrass, Poa annua)
# Summary of the method: as §1
# [11] = system: oat, wild (wild oat, Avena fatua)
# Summary of the method: as §1
# [12] = system: wheat, winter (winter wheat, Triticum aestivum)
# Summary of the method: as §1
# [13] = system: barley, winter (winter barley, Hordeum vulgare)
# Summary of the method: as §1
# [14] = Postemergence, 31 g ai/ha, scale 0 to 100 (0 no effect, 100 complete control)
# [15] = Postemergence, 125 g ai/ha, visual rating on scale 0 (no effect) to 100 (complete control), 14 to 21 d
# [16] = Postemergence, 250 g ai/ha, scale 0 to 100 (0 no effect, 100 complete control)
# [17] = Preemergence, 62 g ai/ha, scale 0 to 100 (0 no effect, 100 complete control)
# [18] = Preemergence, 125 g ai/ha, scale 0 to 100 (0 no effect, 100 complete control)
# [19] = Preemergence, 250 g ai/ha, scale 0 to 100, 0 no effect, 100 complete control
# [20] = postemergence, 62 g ai/ha, scale 0 to 100, 0 no effect, 100 complete control
smiles,measurement,setting,value
Cc1ccc2sc(C)c(-c3c(OC(=O)OC(C)C)c(C)nn(C)c3=O)c2c1 [Compound 66],Chickweed plant response rating,[1]; [14],75
same,"Plant response rating, Chickweed",[1]; [15],100
same,"Plant response rating, Chickweed",[1]; [16],100
same,"Plant response rating (scale of 0 to 100), Chickweed","[1]; Preemergence, 31 g ai/ha",90
same,"Plant response rating, Chickweed",[1]; [17],100
same,"Plant response rating, Chickweed",[1]; [18],100
same,"Plant response rating, Chickweed",[1]; [19],100
same,"Plant response rating, Chickweed",[1]; [20],85
same,"Radish, Wild plant response rating",[2]; [14],5
same,"Plant response rating, Radish, Wild",[2]; [15],30
same,"Plant response rating, Radish, Wild",[2]; [16],45
same,"Plant response rating (scale of 0 to 100), Radish, Wild","[2]; Preemergence, 31 g ai/ha",30
same,"Plant response rating, Radish, Wild",[2]; [17],70
same,"Plant response rating, Radish, Wild",[2]; [18],75
same,"Plant response rating, Radish, Wild",[2]; [19],70
same,"Plant response rating, Radish, Wild",[2]; [20],25
same,Field Poppy plant response rating,[3]; [14],70
same,"Plant response rating, Field Poppy",[3]; [15],95
same,"Plant response rating, Field Poppy",[3]; [16],95
same,"Plant response rating (scale of 0 to 100), Field Poppy","[3]; Preemergence, 31 g ai/ha",100
same,"Plant response rating, Field Poppy",[3]; [17],100
same,"Plant response rating, Field Poppy",[3]; [18],100
same,"Plant response rating, Field Poppy",[3]; [19],100
same,"Plant response rating, Field Poppy",[3]; [20],85
same,"Barley, Spring plant response rating",[4]; [14],0
same,"Plant response rating, Barley, Spring",[4]; [15],5
same,"Plant response rating, Barley, Spring",[4]; [16],15
same,"Plant response rating (scale of 0 to 100), Barley, Spring","[4]; Preemergence, 31 g ai/ha",0
same,"Plant response rating, Barley, Spring",[4]; [17],0
same,"Plant response rating, Barley, Spring",[4]; [19],10
same,"Plant response rating, Barley, Spring",[4]; [20],0
same,"Wheat, Spring plant response rating",[5]; [14],0
same,"Plant response rating, Wheat, Spring",[5]; [15],0
same,"Plant response rating, Wheat, Spring",[5]; [16],5
same,"Plant response rating (scale of 0 to 100), Wheat, Spring","[5]; Preemergence, 31 g ai/ha",0
same,"Plant response rating, Wheat, Spring",[5]; [17],0
same,"Plant response rating, Wheat, Spring",[5]; [18],5
same,"Plant response rating, Wheat, Spring",[5]; [19],20
same,"Plant response rating, Wheat, Spring",[5]; [20],0
same,Canarygrass plant response rating,[6]; [14],55
same,"Plant response rating, Canarygrass",[6]; [15],70
same,"Plant response rating, Canarygrass",[6]; [16],85
same,"Plant response rating (scale of 0 to 100), Canarygrass","[6]; Preemergence, 31 g ai/ha",25
same,"Plant response rating, Canarygrass",[6]; [17],80
same,"Plant response rating, Canarygrass",[6]; [18],85
same,"Plant response rating, Canarygrass",[6]; [19],95
same,"Plant response rating, Canarygrass",[6]; [20],65
same,Russian Thistle plant response rating,[7]; [14],75
same,"Plant response rating, Russian Thistle",[7]; [15],75
same,"Plant response rating, Russian Thistle",[7]; [16],80
same,"Plant response rating (scale of 0 to 100), Russian Thistle","[7]; Preemergence, 31 g ai/ha",0
same,"Plant response rating, Russian Thistle",[7]; [17],20
same,"Plant response rating, Russian Thistle",[7]; [18],60
same,"Plant response rating, Russian Thistle",[7]; [19],90
same,"Plant response rating, Russian Thistle",[7]; [20],80
same,Lambsquarters plant response rating,[8]; [14],95
same,"Plant response rating, Lambsquarters",[8]; [15],100
same,"Plant response rating, Lambsquarters",[8]; [16],100
same,"Plant response rating (scale of 0 to 100), Lambsquarters","[8]; Preemergence, 31 g ai/ha",55
same,"Plant response rating, Lambsquarters",[8]; [17],100
same,"Plant response rating, Lambsquarters",[8]; [18],100
same,"Plant response rating, Lambsquarters",[8]; [19],100
same,"Plant response rating, Lambsquarters",[8]; [20],95
same,Field Violet plant response rating,[9]; [14],85
same,"Plant response rating, Field Violet",[9]; [15],95
same,"Plant response rating, Field Violet",[9]; [16],95
same,"Plant response rating (scale of 0 to 100), Field Violet","[9]; Preemergence, 31 g ai/ha",60
same,"Plant response rating, Field Violet",[9]; [17],85
same,"Plant response rating, Field Violet",[9]; [18],95
same,"Plant response rating, Field Violet",[9]; [19],98
same,"Plant response rating, Field Violet",[9]; [20],95
same,Bluegrass plant response rating,[10]; [14],0
same,"Plant response rating, Bluegrass",[10]; [15],30
same,"Plant response rating, Bluegrass",[10]; [16],35
same,"Plant response rating (scale of 0 to 100), Bluegrass","[10]; Preemergence, 31 g ai/ha",10
same,"Plant response rating, Bluegrass",[10]; [17],15
same,"Plant response rating, Bluegrass",[10]; [18],25
same,"Plant response rating, Bluegrass",[10]; [19],30
same,"Plant response rating, Bluegrass",[10]; [20],25
same,"Oat, Wild plant response rating",[11]; [14],85
same,"Plant response rating, Oat, Wild",[11]; [15],100
same,"Plant response rating, Oat, Wild",[11]; [16],100
same,"Plant response rating (scale of 0 to 100), Oat, Wild","[11]; Preemergence, 31 g ai/ha",75
same,"Plant response rating, Oat, Wild",[11]; [17],85
same,"Plant response rating, Oat, Wild",[11]; [18],85
same,"Plant response rating, Oat, Wild",[11]; [19],90
same,"Plant response rating, Oat, Wild",[11]; [20],95
same,"Wheat, Winter plant response rating",[12]; [14],0
same,"Plant response rating, Wheat, Winter",[12]; [15],0
same,"Plant response rating, Wheat, Winter",[12]; [16],0
same,"Plant response rating (scale of 0 to 100), Wheat, Winter","[12]; Preemergence, 31 g ai/ha",0
same,"Plant response rating, Wheat, Winter",[12]; [17],0
same,"Plant response rating, Wheat, Winter",[12]; [18],0
same,"Plant response rating, Wheat, Winter",[12]; [19],0
same,"Plant response rating, Wheat, Winter",[12]; [20],0
same,"Barley, Winter plant response rating",[13]; [14],0
same,"Plant response rating, Barley, Winter",[13]; [15],0
same,"Plant response rating, Barley, Winter",[13]; [16],5
same,"Plant response rating (scale of 0 to 100), Barley, Winter","[13]; Preemergence, 31 g ai/ha",0
same,"Plant response rating, Barley, Winter",[13]; [17],0
same,"Plant response rating, Barley, Winter",[13]; [18],0
same,"Plant response rating, Barley, Winter",[13]; [19],10
same,"Plant response rating, Barley, Winter",[13]; [20],0
